From the supplement of paper PMC10307832

How the values were obtained:
Test in all cases: relative viability (nuclei count vs DMSO), 5 days (fraction); higher = more cells survive
[1] = system: NCI-H1944
Summary of the method: (§1)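 A single step with final 0.05% Triton X-100, 1% formaldehyde and 1 ug/ml Hoechst fixed the cells and stained nuclei 5 days after treatment. Lung cancer cell lines in 1536-well plates had been treated by pin tool the day after seeding with one drug alone or a fixed anchor-drug dose plus five library-drug doses (not always all listed) in √10 steps, and nuclei were counted on 4× images. Relative viability is the ratio of nuclei in treated wells to nuclei in vehicle wells, taken as the median of duplicate plates.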

[2] = system: NCI-H520
Summary of the method: as §1

[3] = system: HCC-827
Summary of the method: as §1

[4] = system: EMC-BAC-2
Summary of the method: as §1

[5] = system: NCI-H1563
Summary of the method: as §1

[6] = system: LCLC-97TM1
Summary of the method: as §1

[7] = system: NCI-H2085
Summary of the method: as §1

[8] = system: NCI-H23
Summary of the method: as §1

[9] = system: HCC-44
Summary of the method: as §1

[10] = system: NCI-H650
Summary of the method: as §1

[11] = system: NCI-H1993
Summary of the method: as §1

[12] = system: NCI-H1793
Summary of the method: as §1

[13] = system: NCI-H2087
Summary of the method: as §1

[14] = system: NCI-H322M
Summary of the method: as §1

[15] = system: EPLC-272H
Summary of the method: as §1

[16] = system: NCI-H1355
Summary of the method: as §1

[17] = system: H3255
Summary of the method: as §1

[18] = system: NCI-H2405
Summary of the method: as §1

[19] = system: UMC-11
Summary of the method: as §1

[20] = system: LCLC-103H
Summary of the method: as §1

[21] = system: SK-MES-1
Summary of the method: as §1

[22] = system: NCI-H1651
Summary of the method: as §1

[23] = system: NCI-H1395
Summary of the method: as §1

SMILES: C[C@@H]1CN(CC(=O)Nc2ccc3c(c2)Cc2cccc(-c4cc(=O)cc(N5CCOCC5)o4)c2S3)C[C@H](C)O1 + Cc1nc(NC(=O)N2CCC[C@H]2C(N)=O)sc1-c1ccnc(C(C)(C)C(F)(F)F)c1 [Alpelisib] (partner 2 µM)
- relative viability ([1]; first compound 0.1265 µM): 0.826
- relative viability ([1]; first compound 0.4 µM): 0.86
- relative viability ([1]; first compound 4 µM): 0.814
- relative viability ([2]; first compound 0.04 µM): 0.974
- relative viability ([2]; first compound 0.1265 µM): 0.917
- relative viability ([2]; first compound 0.4 µM): 0.535
- relative viability ([2]; first compound 4 µM): 0.854
- relative viability ([3]; first compound 0.04 µM): 1.02
- relative viability ([3]; first compound 0.1265 µM): 0.988
- relative viability ([3]; first compound 0.4 µM): 0.938
- relative viability ([3]; first compound 4 µM): 0.978
- relative viability ([4]; first compound 0.04 µM): 0.748
- relative viability ([4]; first compound 0.1265 µM): 0.771
- relative viability ([4]; first compound 0.4 µM): 0.726
- relative viability ([4]; first compound 4 µM): 0.73
- relative viability ([5]; first compound 0.04 µM): 0.942
- relative viability ([5]; first compound 0.1265 µM): 0.918
- relative viability ([5]; first compound 0.4 µM): 0.748
- relative viability ([5]; first compound 4 µM): 0.753
- relative viability ([6]; first compound 0.1265 µM): 0.225
- relative viability ([6]; first compound 0.4 µM): 0.237
- relative viability ([6]; first compound 4 µM): 0.238
- relative viability ([7]; first compound 0.04 µM): 0.99
- relative viability ([7]; first compound 0.1265 µM): 0.897
- relative viability ([7]; first compound 0.4 µM): 0.793
- relative viability ([7]; first compound 4 µM): 0.7
- relative viability ([8]; first compound 0.04 µM): 0.715
- relative viability ([8]; first compound 0.1265 µM): 0.639
- relative viability ([8]; first compound 0.4 µM): 0.624
- relative viability ([8]; first compound 4 µM): 0.727
- relative viability ([9]; first compound 0.04 µM): 0.774
- relative viability ([9]; first compound 0.1265 µM): 0.744
- relative viability ([9]; first compound 0.4 µM): 0.615
- relative viability ([9]; first compound 4 µM): 0.582
- relative viability ([10]; first compound 0.04 µM): 0.949
- relative viability ([10]; first compound 0.1265 µM): 1.06
- relative viability ([10]; first compound 0.4 µM): 1.15
- relative viability ([10]; first compound 4 µM): 0.895
- relative viability ([11]; first compound 0.04 µM): 0.641
- relative viability ([11]; first compound 0.1265 µM): 0.685
- relative viability ([11]; first compound 0.4 µM): 0.592
- relative viability ([11]; first compound 4 µM): 0.62
- relative viability ([12]; first compound 0.04 µM): 0.717
- relative viability ([12]; first compound 0.1265 µM): 0.614
- relative viability ([12]; first compound 0.4 µM): 0.514
- relative viability ([12]; first compound 4 µM): 0.585
- relative viability ([13]; first compound 0.04 µM): 1.49
- relative viability ([13]; first compound 0.1265 µM): 1.2
- relative viability ([13]; first compound 0.4 µM): 1.2
- relative viability ([13]; first compound 4 µM): 0.837
- relative viability ([14]; first compound 0.04 µM): 0.844
- relative viability ([14]; first compound 0.1265 µM): 0.833
- relative viability ([14]; first compound 0.4 µM): 0.832
- relative viability ([14]; first compound 4 µM): 0.839
- relative viability ([15]; first compound 0.04 µM): 0.928
- relative viability ([15]; first compound 0.1265 µM): 0.806
- relative viability ([15]; first compound 0.4 µM): 0.857
- relative viability ([15]; first compound 4 µM): 1.1
- relative viability ([16]; first compound 0.04 µM): 0.856
- relative viability ([16]; first compound 0.1265 µM): 0.759
- relative viability ([16]; first compound 0.4 µM): 0.862
- relative viability ([16]; first compound 4 µM): 0.827
- relative viability ([17]; first compound 0.04 µM): 0.569
- relative viability ([17]; first compound 0.1265 µM): 0.659
- relative viability ([17]; first compound 0.4 µM): 0.549
- relative viability ([17]; first compound 4 µM): 0.611
- relative viability ([18]; first compound 0.04 µM): 0.899
- relative viability ([18]; first compound 0.1265 µM): 0.818
- relative viability ([18]; first compound 0.4 µM): 0.769
- relative viability ([18]; first compound 4 µM): 0.698
- relative viability ([19]; first compound 0.04 µM): 1.1
- relative viability ([19]; first compound 0.1265 µM): 1.02
- relative viability ([19]; first compound 0.4 µM): 1.1
- relative viability ([19]; first compound 4 µM): 0.737
- relative viability ([20]; first compound 0.04 µM): 1.02
- relative viability ([20]; first compound 0.1265 µM): 0.892
- relative viability ([20]; first compound 0.4 µM): 0.845
- relative viability ([20]; first compound 4 µM): 1.02
- relative viability ([21]; first compound 0.04 µM): 0.927
- relative viability ([21]; first compound 0.1265 µM): 0.826
- relative viability ([21]; first compound 0.4 µM): 1.02
- relative viability ([21]; first compound 4 µM): 0.813
- relative viability ([22]; first compound 0.04 µM): 0.953
- relative viability ([22]; first compound 0.1265 µM): 0.923
- relative viability ([22]; first compound 0.4 µM): 0.881
- relative viability ([22]; first compound 4 µM): 1.06
- relative viability ([23]; first compound 0.04 µM): 0.958
- relative viability ([23]; first compound 0.1265 µM): 1.08
- relative viability ([23]; first compound 0.4 µM): 1.05
- relative viability ([23]; first compound 4 µM): 1.08
